Data as given in US20130064907A1, “COMBINATIONS OF ANTIFUNGAL COMPOUNDS AND TEA TREE OIL” (priority 2010, published 2013).

Tests used:
Type in all cases: in vivo
pepper powdery mildew [1] = assay: Pepper Powdery Mildew - Site 1, foliar sprays; details: 14 days from third application; TG 0.3%, Triadimenol 75 cc/dunam, Azoxystronin 50 cc/dunam, Trifloxystrobin 20 cc/dunam, alone or combined with TG
Experimental: (§1) Various combinations of TTO (supplied as Timorex Gold®) and synthetic fungicidal compositions (supplied as commercial products to be diluted by the end user prior to use) were tested against tomato powdery mildew and pepper powdery mildew. Open field or greenhouse-grown plants of the crops studied were drip irrigated and fertilized according to known recommendations for each crop. Treatments were applied in a randomized complete block, with 5 replications per treatment. Plot size in each instance was of 5-10 m length, containing 6-20 plants, depending on the crop. Fungicidal treatment was applied using backpack sprayer equipped with a mist blower (STHIL 340) to spray a volume of 600 liter/ha, depending on the crop. From three to eight foliar sprays were applied at 7-14 day intervals, depending on the crop. Disease severity was evaluated by determining the leaf area covered with powdery mildew (disease severity) on each of 20 leaves randomly selected per each replicate. […] To analyze the results, an arc-sin transformation was performed on the raw data, and analysis of variance (ANOVA) using the SAS GLM procedure was applied to the transformed data. The Tukey-Kramer Test was applied to determine whether differences between treatments were significant. In the tables, “a”, “b” and “c”, refer to differences in statistical analysis that are familiar to users of the Tukey-Kramer test; “SF” is the “synergy” factor, calculated using the Abbott formula (SF=observed efficacy (Eobs)/expected efficacy (Eexp), where Eexp=α+β−[…], where α and β denote the levels of control afforded by materials α and β, respectively, alone; see e.g. Levy et al., EPPO Bull. 16, 651-657 (1986)).

tomato powdery mildew = assay: Tomato Powdery Mildew - Site 1, foliar sprays; details: 12 days from fourth application; TG 0.3%, Azoxystrobin 50 cc/dunam, alone or combined
Experimental: as §1

pepper powdery mildew [2] = assay: Pepper Powdery Mildew - Site 2, foliar sprays; details: 15 days from ninth application; TG 0.3%, Trifloxystrobin 20 gr/dunam, Myclobutanil 60 gr/dunam, alone or combined with TG
Experimental: Various combinations of TTO (supplied as Timorex Gold®) and synthetic fungicidal compositions (supplied as commercial products to be diluted by the end user prior to use) were tested against tomato powdery mildew and pepper powdery mildew. Open field or greenhouse-grown plants of the crops studied were drip irrigated and fertilized according to known recommendations for each crop. Treatments were applied in a randomized complete block, with 5 replications per treatment. Plot size in each instance was of 5-10 m length, containing 6-20 plants, depending on the crop. Fungicidal treatment was applied using backpack sprayer equipped with a mist blower (STHIL 340) to spray a volume of 600 liter/ha, depending on the crop. […] Disease severity was evaluated by determining the leaf area covered with powdery mildew (disease severity) on each of 20 leaves randomly selected per each replicate. […] To analyze the results, an arc-sin transformation was performed on the raw data, and analysis of variance (ANOVA) using the SAS GLM procedure was applied to the transformed data. The Tukey-Kramer Test was applied to determine whether differences between treatments were significant. In the tables, “a”, “b” and “c”, refer to differences in statistical analysis that are familiar to users of the Tukey-Kramer test; “SF” is the “synergy” factor, calculated using the Abbott formula (SF=observed efficacy (Eobs)/expected efficacy (Eexp), where Eexp=α+β−[…], where α and β denote the levels of control afforded by materials α and β, respectively, alone; see e.g. Levy et al., EPPO Bull. 16, 651-657 (1986)).

SMILES	Incidence: % leaves infected (pepper powdery mildew [1])	Incidence: Efficacy (%) (pepper powdery mildew [1])	Severity: % infected leaf area (pepper powdery mildew [1])	Severity: Efficacy (%) (pepper powdery mildew [1])	Incidence: % leaves infected (tomato powdery mildew)	Incidence: Efficacy (%) (tomato powdery mildew)	Severity: % infected leaf area (tomato powdery mildew)	Severity: Efficacy (%) (tomato powdery mildew)	Incidence: % leaves infected (pepper powdery mildew [2])	Incidence: Efficacy (%) (pepper powdery mildew [2])	Severity: % infected leaf area (pepper powdery mildew [2])	Severity: Efficacy (%) (pepper powdery mildew [2])
CC(C)(C)C(O)C(Oc1ccc(Cl)cc1)n1cncn1 (stereo not drawn) [Triadimenol]	48.7%	41.8%	8.4%	65.6%								
CO/C=C(/C(=O)OC)c1ccccc1Oc1cc(Oc2ccccc2C#N)ncn1 [Azoxystrobin]	22.5%	73.1%	2.9%	88.1%	45%	55.0%	5%	91.7%				
CCCCC(C#N)(Cn1cncn1)c1ccc(Cl)cc1 (stereo not drawn) [Myclobutanil]									2%	96.9%	0%	100.0%
CON=C(C(=O)OC)c1ccccc1CON=C(C)c1cccc(C(F)(F)F)c1 [Trifloxystrobin]	25%	70.1%	1.9%	92.2%					2%	96.9%	0.1%	99.6%
